Test results reported in US20170246241A1, “Methods for the Selective Treatment of Tumors by Calcium-Mediated Induction of Apoptosis” (priority 2003, published 2017).
Entries after “also recorded” stand apart in the source; their conditions may differ.

Key:
[1] = tested on: MEL-STR cells; test: Annexin V-FITC apoptosis detection by flow cytometry (apoptotic+dead cells); type: cell-based, human; conditions: for fold more potent at inducing apoptosis in STR compared to STVP cells: 5 hour exposure (FIGS. 13, 14); for greater sensitivity / potency advantage, malignant versus non-malignant cells, induction of apoptosis: 5 hrs exposure (FIG. 3, FIG. 4)
Protocol: (§1) FIG. 2. […] Malignant (MEL-STR) and non-malignant (MEL-STVP) cells used in these experiments were derived originally from normal human foreskin melanocytes obtained from the Weisberg lab. These original surgical samples were genetically modified to grow continuously in vitro and are non-tumor-forming in a nude mouse model. These same cells were genetically modified further to generate the tumor-forming cell line and were propagated.
Apoptotic+dead cells were assayed in this experiment and those that follow below on a Becton-Dickenson flow cytometer using an Annexin V-FITC Apoptosis Detection Kit as described by the manufacturer.
Drug exposure time was 5 hrs. Viable and live cells were measured by FACS and by Coulter counting, respectively. […] Panels A & B: solid circles and lines, STR cells; open circles and broken lines, STVP cells; Panel B, inverse logit/log plot of the data from Panel A. Solid gray circles in Panel B (extrapolated minimum values on abscissa) were used to plot the maximum values shown in Panel A.

[2] = tested on: certain cancers; conditions: in vivo; cited from earlier work
[3] = tested on: MEL-STR cells; test: Cell morphology (FACS light scatter, microscopic examination); type: cell-based, human
Excerpt: Calmodulin is known to be required for traverse of late G1, G2, and specific periods during mitosis and coincides with periods of elevated […] levels.
The involvement of a form of PKC in the enzyme tetrad that is involved in Ca^2+-dependent, cell cycle phase transitions is given in FIG. 4. […] Four different means for assaying the effect of these two chemicals are shown.

[4] = tested on: STVP cells; test: Cell density / growth inhibition by Coulter counting; type: cell-based, human; conditions: PP2B-AIP alone, wide concentration range, 24 hours
Protocol: Closed circles, solid lines, PP2B-AIP only; open circles, dashed lines, PP2B+C6C (15 uM). Cell density was quantified by Coulter counting which measures only cells with Panel A, STR cells; Panel B, STVP cells. Closed circles, solid lines, PP2B-AIP only; open circles, dashed lines, PP2B+C6C (15 uM). Cell density was quantified by Coulter counting which measures only cells with ionically intact plasma membranes (presumed live cells). Drug exposure time was 24 hours. Cell density values are expressed as a percentage of maximum for no drug or C6C only controls. Solid black lines in Panels A & B and dashed line in Panel B represent the average of all values across the PP2B-AIP concentration range. The ability of PKC agonists on apoptosis induction is potentiated by antagonists of Calmodulin-dependent protein phosphatase (a.k.a. Calcineurin or PP2B) and these effects occur at lower drug concentrations in transformed cells than in untransformed cells. […]

[5] = tested on: STR cells; conditions: PP2B-AIP alone, wide concentration range, 24 hours
Protocol: Panel B, cell density measured by Coulter counting; Panel C, morphological changes measured by changes in forward light scatter as measured by FACS; Panel D, percentage of spherical cells was determined on live cell populations by counting approximately 500 cells in a representative field using an inverted phase contrast microscope.
Closed circles, solid lines, PP2B-AIP only; open circles, dashed lines, PP2B+C6C (15 uM). Cell density was quantified by Coulter counting which measures only cells with Panel A, STR cells; Panel B, STVP cells. Closed circles, solid lines, PP2B-AIP only; open circles, dashed lines, PP2B+C6C (15 uM). Cell density was quantified by Coulter counting which measures only cells with ionically intact plasma membranes (presumed live cells). Drug exposure time was 24 hours. Cell density values are expressed as a percentage of maximum for no drug or C6C only controls. Solid black lines in Panels A & B and dashed line in Panel B represent the average of all values across the PP2B-AIP concentration range ionically intact plasma membranes (presumed live cells). Drug exposure time was 24 hours. Cell density values are expressed as a percentage of maximum for no drug or C6C only controls. Solid black lines in Panels A & B and dashed line in Panel B represent the average of all values across the PP2B-AIP concentration range.

[6] = tested on: MEL-STVP cells; test: Annexin V-FITC apoptosis detection by flow cytometry (apoptotic+dead cells); type: cell-based, human
Excerpt: as §1, with “propagated. Thus, this represents an ideal pair of highly similar cells by which drug specificity between normal and malignant cells can be assessed.” for “propagated.”
Transformed MEL-STR cells were incubated over a period of 24 hrs in the presence of a previously determined ineffective concentration (10 μm) of the CAM antagonist W-7 or the drug vehicle DMSO (1%) as controls and a concentration of 60 μm W-7 as illustrated. Apoptotic+dead cells were assayed in this experiment and those that follow below on a Becton-Dickenson flow cytometer using an Annexin V-FITC Apoptosis Detection Kit as described by the manufacturer.
Drug exposure time was 5 hrs. Viable and live cells were measured by FACS and by Coulter counting, respectively. Dose-dependent decreases in viable cells were inversely proportional to the number of Annexin+Propidium Iodide positive staining cells (data not shown) in these and the following experiments. […]

[7] = tested on: MEL-STR cells; test: as above; type: cell-based, human; conditions: 60 μm W-7, time course over 24 hrs
[8] = PP2B-AIP alone, over the concentration range tested

CCCCCCCCCCCCC/C=C/[C@@H](O)[C@H](CO)NC(=O)CCCCC [C6C, N-Hexanoyl-D-erythro-Sphingosine]
fold more potent at inducing apoptosis in STR compared to STVP cells [1]: ca. 6 fold
potentiation of induction of apoptosis in combination with W-7 ([1]; C6C combined with W-7, 5 hr exposure): potentiated
greater sensitivity / potency advantage, malignant versus non-malignant cells, induction of apoptosis ([1]; MEL-STR vs MEL-STVP): ~10 fold

C=C1/C(=C\C=C2/CCC[C@]3(C)[C@@H]([C@H](C)CCCC(C)(C)O)CC[C@@H]23)C[C@@H](O)C[C@@H]1O [Calcitriol]
reduction of the incidence of certain cancers [2]: 17-20%

CCCCCCCCCCCCCC(=O)O[C@@H]1[C@@H](C)[C@@]2(O)[C@@H](C=C(CO)C[C@]3(O)C(=O)C(C)=C[C@@H]23)[C@@H]2C(C)(C)[C@]12OC(C)=O [PMA, Phorbol-12-Myristate-13-Acetate]
potentiation of cell shape change in combination with W-7 ([3]; PMA combined with W-7, light scatter by FACS and microscopic examination): Potentiation is also confirmed; also recorded: synergistic drug effects
potentiation of induction of apoptosis in combination with W-7 (Annexin assay) ([1]; PMA combined with submaximal W-7): shows potentiation; also recorded: synergy

Ac-RRRRRRRRRRRGGGRMAPPRRDAMPSDA-NH2 [PP2B-AIP]
effect on growth, drug alone [4]: no discernible effect
effect on growth, drug alone [5]: no discernible effect
induction of apoptosis, drug alone [1, 8]: no visible induction of apoptosis
maximum of cells killed ([1]; PP2B-AIP with C6C, 5 hr. exposure): ≤ 50%
potentiation of apoptosis in combination with C6C ([1]; combined with C6C): potentiation is seen only in the transformed MEL-STR cell line
induction of apoptosis, drug alone [6, 8]: no visible induction of apoptosis
potentiation of apoptosis in combination with C6C ([6]; combined with C6C): not in untransformed MEL-STVP cells

Oc1ccc(Nc2nc(-c3ccc(Cl)cc3)cs2)cc1 [SKi, 4-[[4-(4-Chlorophenyl)-1,3-thiazol-2-yl]amino]phenol]
potentiation of induction of apoptosis in combination with W-7 ([1]; SKi combined with W-7): synergy

Cl.NCCCCCCNS(=O)(=O)c1cccc2c(Cl)cccc12 [W-7, N-(6-aminohexyl)-5-chloro-1-naphthalenesulfonamide hydrochloride]
time at which morphological rounding of cells can be observed ([3]; 60 μm W-7, microscopically or by FACS light scatter): 1 hr
population scoring positively for apoptosis [7]: > 90%
time at which induction of apoptosis can be seen [7]: 3 h
induction of apoptosis at 10 μm ([1]; 10 μm, previously determined): ineffective
fold more potent at inducing apoptosis in STR compared to STVP cells [1]: ca. 5 fold
sensitivity to induction of apoptosis, malignant versus non-malignant cells ([1]; MEL-STR vs MEL-STVP, 5 hr. exposure, dose response (FIG. 3)): more than 10 times
greater sensitivity / potency advantage, malignant versus non-malignant cells, induction of apoptosis ([1]; MEL-STR vs MEL-STVP): 10 fold
